Laboratory results taken from PMC5896266, “Development of Matrix Metalloproteinase-2 Inhibitors for Cardioprotection” (Frontiers in Pharmacology, 2018).

System: isolated rat hearts
Assay: Myocardial infarct size in isolated rat heart, global ischemia/reperfusion (Langendorff)
Settings: 1 μM; 30 min global ischemia, 120 min reperfusion; vs vehicle
Method: Our experiment conforms to the National Institutes of Health Guide for the Care and Use of Laboratory Animals (NIH Pub. No. 85-23, Revised 1996) and also to the EU directive guideline for the care and use of laboratory animals published by the European Union (2010/63/EU) and was approved by the local ethics committee of the University of Szeged. Eight to ten week-old male Wistar rats weighing 300–350 g (Toxicoop Ltd., Budapest, Hungary) were anesthetized intraperitoneally with 60 mg/kg pentobarbital sodium (Euthasol, Produlab Pharma, Raamsdonksveer, The Netherlands). After administration of 500 U/kg heparin through the femoral vein, the heart was isolated and perfused according to Langendorff with oxygenated Krebs-Henseleit buffer at 37°C as previously described (Turan et al., [2006]). […] Heart rate and coronary flow were monitored throughout the perfusion protocol. […]
At the end of the 2-h reperfusion, the right ventricle was removed, hearts were frozen, cut into six 1-mm-thick slices, and incubated in 1% triphenyl-tetrazolium chloride (Sigma-Aldrich; St. Louis, MO) at 37°C to delineate infarcted tissue. Slices were then fixed and quantified by planimetry using Infarctsize™ 2.5 software (Pharmahungary, Szeged, Hungary) (Fekete et al., [2013]). Infarct size was expressed as a percentage of the left ventricle.

O=C(O)c1c[nH]c(CN(Cc2ccc(F)cc2)Cc2ccc(OCc3ccccc3)cc2)n1 [MMPI-1154]
myocardial infarct size: reduced myocardial infarct size significanly
